From paper PMC5862592, “CDK8/19 inhibition induces premature G1/S transition and ATR-dependent cell death in prostate cancer cells” (Oncotarget, 2018)
Read-outs that look alike come from different tables or passages of the source.

How the values were obtained:
Assay in all cases: biochemical
Parameters in all cases: KINOMEscan active site-directed competition binding assay (DiscoveRx), 456 kinases, per cent of control at 300 nM
Settings in all cases: read-out: Percent of Control (%)
PCTK2 = biological target: T1, PCTK2 (Homo sapiens, UniProt Q00537)
T1 construct: gene CDK17
Procedure, shortened: (§1)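 Compounds at 300 nmol/L screened against 456 kinases by KINOMEscan, a competition binding assay measuring displacement at the kinase active site.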

LRRK2(G2019S) = LRRK2(G2019S) (Homo sapiens, UniProt Q5S007, G2019S)
Chain of LRRK2(G2019S) (Q5S007 whole entry G2019S): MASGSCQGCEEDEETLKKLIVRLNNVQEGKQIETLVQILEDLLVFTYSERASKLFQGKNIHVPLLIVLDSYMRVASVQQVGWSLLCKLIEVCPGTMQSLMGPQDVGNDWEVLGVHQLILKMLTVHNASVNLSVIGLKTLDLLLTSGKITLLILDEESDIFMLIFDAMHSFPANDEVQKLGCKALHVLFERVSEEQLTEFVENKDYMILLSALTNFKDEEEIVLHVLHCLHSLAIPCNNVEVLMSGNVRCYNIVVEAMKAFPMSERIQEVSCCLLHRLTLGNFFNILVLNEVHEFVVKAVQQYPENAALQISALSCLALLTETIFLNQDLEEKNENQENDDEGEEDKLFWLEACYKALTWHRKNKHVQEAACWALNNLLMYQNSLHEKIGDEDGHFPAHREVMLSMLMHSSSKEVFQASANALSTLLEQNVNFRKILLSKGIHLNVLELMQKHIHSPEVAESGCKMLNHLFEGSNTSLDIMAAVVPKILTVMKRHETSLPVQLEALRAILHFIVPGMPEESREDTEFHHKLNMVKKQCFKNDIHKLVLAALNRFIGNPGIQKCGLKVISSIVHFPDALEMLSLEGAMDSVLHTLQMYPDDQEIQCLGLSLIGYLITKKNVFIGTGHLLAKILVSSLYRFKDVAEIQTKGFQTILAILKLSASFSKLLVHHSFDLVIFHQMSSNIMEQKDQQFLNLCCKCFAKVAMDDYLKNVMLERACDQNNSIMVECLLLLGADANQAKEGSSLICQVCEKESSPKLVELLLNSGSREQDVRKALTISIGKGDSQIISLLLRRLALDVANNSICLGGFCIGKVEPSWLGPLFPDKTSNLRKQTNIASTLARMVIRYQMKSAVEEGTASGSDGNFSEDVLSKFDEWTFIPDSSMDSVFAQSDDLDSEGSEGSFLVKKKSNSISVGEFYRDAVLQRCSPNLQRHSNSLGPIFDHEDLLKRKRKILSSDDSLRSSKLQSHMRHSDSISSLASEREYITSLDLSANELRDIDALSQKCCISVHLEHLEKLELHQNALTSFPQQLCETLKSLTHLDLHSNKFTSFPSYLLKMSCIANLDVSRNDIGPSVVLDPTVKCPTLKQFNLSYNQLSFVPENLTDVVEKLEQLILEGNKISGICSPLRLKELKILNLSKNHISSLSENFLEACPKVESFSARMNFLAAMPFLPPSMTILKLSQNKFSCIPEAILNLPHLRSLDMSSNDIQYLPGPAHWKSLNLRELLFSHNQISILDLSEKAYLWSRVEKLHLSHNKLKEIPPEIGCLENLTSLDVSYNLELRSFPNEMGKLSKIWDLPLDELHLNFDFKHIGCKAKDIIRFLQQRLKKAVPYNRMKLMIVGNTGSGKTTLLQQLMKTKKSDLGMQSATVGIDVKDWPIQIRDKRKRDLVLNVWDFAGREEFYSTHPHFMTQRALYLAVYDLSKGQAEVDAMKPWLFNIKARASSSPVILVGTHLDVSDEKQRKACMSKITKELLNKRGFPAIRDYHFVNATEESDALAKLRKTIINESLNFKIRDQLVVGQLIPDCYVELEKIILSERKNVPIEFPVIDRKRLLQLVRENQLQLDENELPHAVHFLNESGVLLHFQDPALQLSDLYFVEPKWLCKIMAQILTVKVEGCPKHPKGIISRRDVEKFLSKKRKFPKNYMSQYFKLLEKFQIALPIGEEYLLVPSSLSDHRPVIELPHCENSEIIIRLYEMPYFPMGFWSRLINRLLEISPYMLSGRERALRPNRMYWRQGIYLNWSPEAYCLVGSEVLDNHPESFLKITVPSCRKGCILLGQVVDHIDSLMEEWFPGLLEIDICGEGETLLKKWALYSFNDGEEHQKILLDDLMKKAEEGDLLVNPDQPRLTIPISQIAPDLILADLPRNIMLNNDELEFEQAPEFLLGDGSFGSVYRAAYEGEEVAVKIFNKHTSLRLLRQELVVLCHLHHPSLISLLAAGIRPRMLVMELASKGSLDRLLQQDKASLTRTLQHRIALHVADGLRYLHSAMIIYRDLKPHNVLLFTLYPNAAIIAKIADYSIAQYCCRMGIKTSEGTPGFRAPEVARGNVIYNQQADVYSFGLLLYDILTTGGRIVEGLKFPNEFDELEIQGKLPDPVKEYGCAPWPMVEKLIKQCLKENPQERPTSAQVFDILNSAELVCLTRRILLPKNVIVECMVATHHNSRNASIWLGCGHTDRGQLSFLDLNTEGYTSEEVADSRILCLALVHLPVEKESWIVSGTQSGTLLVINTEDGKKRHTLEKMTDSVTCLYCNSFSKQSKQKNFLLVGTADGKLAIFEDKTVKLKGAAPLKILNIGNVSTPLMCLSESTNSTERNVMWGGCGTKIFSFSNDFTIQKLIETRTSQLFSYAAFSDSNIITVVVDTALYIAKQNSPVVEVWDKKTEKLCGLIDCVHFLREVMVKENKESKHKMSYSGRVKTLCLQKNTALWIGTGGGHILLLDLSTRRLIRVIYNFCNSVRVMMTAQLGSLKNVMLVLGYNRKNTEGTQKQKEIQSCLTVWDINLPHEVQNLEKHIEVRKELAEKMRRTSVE
Procedure, shortened: as §1

INSR = INSR (Homo sapiens, UniProt P06213)
Procedure, shortened: as §1

PYK2 = biological target: T2, PYK2 (Homo sapiens, UniProt Q14289)
T2 construct: gene PTK2B
Procedure, shortened: as §1

CASK = CASK (Homo sapiens, UniProt O14936)
Procedure, shortened: as §1

STK33 = STK33 (Homo sapiens, UniProt Q9BYT3)
Procedure, shortened: as §1

HIPK1 = HIPK1 (Homo sapiens, UniProt Q86Z02)
Procedure, shortened: as §1

JNK3 = biological target: T3, JNK3 (Homo sapiens, UniProt P53779)
T3 construct: gene MAPK10
Procedure, shortened: as §1

NEK9 = NEK9 (Homo sapiens, UniProt Q8TD19)
Procedure, shortened: as §1

[1] = biological target: T4, JAK2(JH1domain-catalytic) (Homo sapiens, UniProt O60674)
T4 construct: JH1domain-catalytic
T4 sequence (O60674 whole entry): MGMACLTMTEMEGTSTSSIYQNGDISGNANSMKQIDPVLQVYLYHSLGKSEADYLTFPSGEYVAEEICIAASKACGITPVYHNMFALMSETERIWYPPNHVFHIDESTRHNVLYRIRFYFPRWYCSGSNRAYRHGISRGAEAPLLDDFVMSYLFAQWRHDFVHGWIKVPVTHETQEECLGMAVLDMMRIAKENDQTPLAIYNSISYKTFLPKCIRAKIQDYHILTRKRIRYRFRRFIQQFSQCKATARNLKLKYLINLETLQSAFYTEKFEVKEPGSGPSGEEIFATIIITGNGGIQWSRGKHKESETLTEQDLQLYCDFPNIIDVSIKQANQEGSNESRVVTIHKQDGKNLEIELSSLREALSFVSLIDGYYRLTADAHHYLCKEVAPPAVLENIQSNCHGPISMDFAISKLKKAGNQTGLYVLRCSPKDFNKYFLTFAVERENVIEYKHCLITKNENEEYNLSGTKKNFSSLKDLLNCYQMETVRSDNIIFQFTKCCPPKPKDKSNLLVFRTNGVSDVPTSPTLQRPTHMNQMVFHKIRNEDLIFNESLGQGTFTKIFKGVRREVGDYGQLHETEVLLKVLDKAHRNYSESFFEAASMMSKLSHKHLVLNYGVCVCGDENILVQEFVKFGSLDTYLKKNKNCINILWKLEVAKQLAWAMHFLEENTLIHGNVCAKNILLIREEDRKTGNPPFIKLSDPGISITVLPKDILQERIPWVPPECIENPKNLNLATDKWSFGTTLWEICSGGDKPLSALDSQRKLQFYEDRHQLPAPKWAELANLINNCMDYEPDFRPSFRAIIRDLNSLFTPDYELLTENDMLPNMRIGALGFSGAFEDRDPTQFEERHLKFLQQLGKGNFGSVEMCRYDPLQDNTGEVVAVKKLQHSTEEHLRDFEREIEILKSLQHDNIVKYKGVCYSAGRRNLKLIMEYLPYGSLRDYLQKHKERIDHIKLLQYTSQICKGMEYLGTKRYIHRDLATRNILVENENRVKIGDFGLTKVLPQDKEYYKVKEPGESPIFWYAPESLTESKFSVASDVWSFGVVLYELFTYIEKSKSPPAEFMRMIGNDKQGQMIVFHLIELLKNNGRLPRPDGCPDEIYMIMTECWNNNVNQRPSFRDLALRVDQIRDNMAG
Procedure, shortened: as §1

p38-delta = biological target: T5, p38-delta (Homo sapiens, UniProt O15264)
T5 construct: gene MAPK13
Procedure, shortened: as §1

AMPK-alpha1 = biological target: T6, AMPK-alpha1 (Homo sapiens, UniProt Q13131)
T6 construct: gene PRKAA1
T6 sequence (Q13131 whole entry): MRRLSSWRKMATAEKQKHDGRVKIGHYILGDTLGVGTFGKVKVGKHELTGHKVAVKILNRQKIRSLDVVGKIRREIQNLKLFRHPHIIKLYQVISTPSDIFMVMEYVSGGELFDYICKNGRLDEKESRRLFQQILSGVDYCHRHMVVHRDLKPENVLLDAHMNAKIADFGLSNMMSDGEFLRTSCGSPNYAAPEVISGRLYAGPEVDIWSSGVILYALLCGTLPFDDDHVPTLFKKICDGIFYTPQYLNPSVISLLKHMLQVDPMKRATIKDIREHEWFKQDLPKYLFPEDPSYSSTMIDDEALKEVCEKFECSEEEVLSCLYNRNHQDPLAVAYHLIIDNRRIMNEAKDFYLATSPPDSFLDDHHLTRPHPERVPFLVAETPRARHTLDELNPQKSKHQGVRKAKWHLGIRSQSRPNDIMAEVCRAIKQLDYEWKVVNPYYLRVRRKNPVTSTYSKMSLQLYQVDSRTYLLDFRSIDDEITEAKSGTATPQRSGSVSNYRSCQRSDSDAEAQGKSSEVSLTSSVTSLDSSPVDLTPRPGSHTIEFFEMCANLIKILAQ
Procedure, shortened: as §1

ERK4 = biological target: T7, ERK4 (Homo sapiens, UniProt P31152)
T7 construct: gene MAPK4
Procedure, shortened: as §1

RET = RET (Homo sapiens, UniProt P07949)
Procedure, shortened: as §1

TEC = TEC (Homo sapiens, UniProt P42680)
Chain of TEC (P42680 whole entry): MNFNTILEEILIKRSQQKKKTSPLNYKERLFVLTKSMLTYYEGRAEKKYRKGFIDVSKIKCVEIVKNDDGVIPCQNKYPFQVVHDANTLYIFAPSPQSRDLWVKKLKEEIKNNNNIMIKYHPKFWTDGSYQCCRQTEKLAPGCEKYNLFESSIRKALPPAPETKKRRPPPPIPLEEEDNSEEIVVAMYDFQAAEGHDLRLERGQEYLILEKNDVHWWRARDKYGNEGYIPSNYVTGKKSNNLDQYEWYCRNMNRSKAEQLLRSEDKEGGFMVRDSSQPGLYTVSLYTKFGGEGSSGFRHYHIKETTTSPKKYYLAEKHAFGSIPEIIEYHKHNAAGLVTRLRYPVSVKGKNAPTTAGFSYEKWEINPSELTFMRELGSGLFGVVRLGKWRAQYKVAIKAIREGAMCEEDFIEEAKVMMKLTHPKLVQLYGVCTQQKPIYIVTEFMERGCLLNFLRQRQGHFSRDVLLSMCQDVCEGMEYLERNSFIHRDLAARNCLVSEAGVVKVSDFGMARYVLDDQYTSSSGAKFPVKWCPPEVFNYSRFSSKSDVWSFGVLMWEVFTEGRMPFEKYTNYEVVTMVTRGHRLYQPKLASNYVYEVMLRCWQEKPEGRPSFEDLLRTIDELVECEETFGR
Procedure, shortened: as §1

PRKCI = PRKCI (Homo sapiens, UniProt P41743)
Procedure, shortened: as §1

DYRK1A = DYRK1A (Homo sapiens, UniProt Q13627)
Procedure, shortened: as §1

PKN2 = PKN2 (Homo sapiens, UniProt Q16513)
Procedure, shortened: as §1

EGFR(L858R,T790M) = EGFR(L858R,T790M) (Homo sapiens, UniProt P00533, L858R/T790M)
Procedure, shortened: as §1

MET(M1250T) = MET(M1250T) (Homo sapiens, UniProt P08581, M1250T)
Procedure, shortened: as §1

NEK3 = NEK3 (Homo sapiens, UniProt P51956)
Procedure, shortened: as §1

MKK7 = biological target: T8, MKK7 (Homo sapiens, UniProt O14733)
T8 construct: gene MAP2K7
Procedure, shortened: as §1

Cc1ncccc1Oc1sc(C(N)=O)c2c1-c1c(cnn1C)CC2 [T-474, 1-methyl-8-((2-methylpyridin-3-yl)oxy)-4,5-dihydro-1H-thieno[3,4-g]indazole-6-carboxamide]
remaining binding at 0.3 µM (PCTK2): 100% | remaining binding at 0.3 µM (LRRK2(G2019S)): 88% | remaining binding at 0.3 µM (INSR): 66% | remaining binding at 0.3 µM (PYK2): 100% | remaining binding at 0.3 µM (CASK): 85% | remaining binding at 0.3 µM (STK33): 86% | remaining binding at 0.3 µM (HIPK1): 81% | remaining binding at 0.3 µM (JNK3): 97% | remaining binding at 0.3 µM (NEK9): 100% | remaining binding at 0.3 µM [1]: 100% | remaining binding at 0.3 µM (p38-delta): 96% | remaining binding at 0.3 µM (AMPK-alpha1): 100% | remaining binding at 0.3 µM (ERK4): 100% | remaining binding at 0.3 µM (RET): 100% | remaining binding at 0.3 µM (TEC): 100% | remaining binding at 0.3 µM (PRKCI): 77% | remaining binding at 0.3 µM (DYRK1A): 66% | remaining binding at 0.3 µM (PKN2): 100% | remaining binding at 0.3 µM (EGFR(L858R,T790M)): 85% | remaining binding at 0.3 µM (MET(M1250T)): 100% | remaining binding at 0.3 µM (NEK3): 100% | remaining binding at 0.3 µM (MKK7): 100%

O=C(/C=C/c1cnccc1-c1ccc(F)cc1)Nc1ccc(CCc2nnco2)cc1 [T-418, (2E)-3-(4-(4-fluorophenyl)pyridin-3-yl)-N-(4-(2-(1,3,4-oxadiazol-2-yl)ethyl)phenyl)acrylamide]
remaining binding at 0.3 µM (PCTK2; sheet T-418): 100% | remaining binding at 0.3 µM (LRRK2(G2019S); sheet T-418): 84% | remaining binding at 0.3 µM (INSR; sheet T-418): 69% | remaining binding at 0.3 µM (PYK2; sheet T-418): 88% | remaining binding at 0.3 µM (CASK; sheet T-418): 89% | remaining binding at 0.3 µM (STK33; sheet T-418): 91% | remaining binding at 0.3 µM (HIPK1; sheet T-418): 75% | remaining binding at 0.3 µM (JNK3; sheet T-418): 94% | remaining binding at 0.3 µM (NEK9; sheet T-418): 100% | remaining binding at 0.3 µM ([1]; sheet T-418): 100% | remaining binding at 0.3 µM (p38-delta; sheet T-418): 100% | remaining binding at 0.3 µM (AMPK-alpha1; sheet T-418): 100% | remaining binding at 0.3 µM (ERK4; sheet T-418): 100% | remaining binding at 0.3 µM (RET; sheet T-418): 63% | remaining binding at 0.3 µM (TEC; sheet T-418): 98% | remaining binding at 0.3 µM (PRKCI; sheet T-418): 70% | remaining binding at 0.3 µM (DYRK1A; sheet T-418): 100% | remaining binding at 0.3 µM (PKN2; sheet T-418): 95% | remaining binding at 0.3 µM (EGFR(L858R,T790M); sheet T-418): 98% | remaining binding at 0.3 µM (MET(M1250T); sheet T-418): 97% | remaining binding at 0.3 µM (NEK3; sheet T-418): 100% | remaining binding at 0.3 µM (MKK7; sheet T-418): 100%
